Measured values reported in patent US20200315933A1, “USE OF CANNABIDIOL OR CANNABIS EXTRACT IN PREPARATION OF SKIN WHITENING PRODUCTS” (HANYI BIO-TECHNOLOGY COMPANY LTD., priority 2017, published 2020).

Tests used:
Assay type in all cases: cell-based
B16 cells = experiment: Determination of melanin content in B16 cells; details: positive control 33 mM
Protocol: B16 cells in good state at a logarithmic phase were collected, trypsin was adopted for digestion, the digestion was terminated with a complete medium, and counting was performed; the prepared cell suspension was adjusted to 5×10^4 cells/ml and added into a 6-well culture plate, 2 ml of cell suspension was added into each well, cultivation was performed in an incubator at 37° C. and with 5% CO2 overnight; the medium was drawn out, 2 ml of cannabis extracts with different concentrations were added into each well, after action of 48 hours, the medium was drawn out and abandoned, trypsin was adopted for digestion, and the product was collected into a centrifugal tube, centrifugation was performed to obtain a cell precipitate, the cell precipitate was washed with PBS for one time, a 1M NaOH (containing 10% DMSO) solution was added for cell lysis, and the lysed cells were put in a 80° C. water bath kettle for water bath for 30 minutes; uniform shaking and mixing were performed, and the processed cells were drawn into to a 96-well plate; and the absorbance value was determined at the wavelength of 245 nm.
Relative melanin content=(mean absorbance value in each well under every concentration−mean absorbance value in the control group)[…].

tyrosinase = molecular target: T1, tyrosinase (Mus musculus, UniProt P11344); experiment: Determination of tyrosinase inhibition rate in B16 cells; details: action of 72 hours, inhibition rate increased with amount
T1 construct: endogenous in cells; host or cells: B16 cells
T1 sequence (P11344 19-533): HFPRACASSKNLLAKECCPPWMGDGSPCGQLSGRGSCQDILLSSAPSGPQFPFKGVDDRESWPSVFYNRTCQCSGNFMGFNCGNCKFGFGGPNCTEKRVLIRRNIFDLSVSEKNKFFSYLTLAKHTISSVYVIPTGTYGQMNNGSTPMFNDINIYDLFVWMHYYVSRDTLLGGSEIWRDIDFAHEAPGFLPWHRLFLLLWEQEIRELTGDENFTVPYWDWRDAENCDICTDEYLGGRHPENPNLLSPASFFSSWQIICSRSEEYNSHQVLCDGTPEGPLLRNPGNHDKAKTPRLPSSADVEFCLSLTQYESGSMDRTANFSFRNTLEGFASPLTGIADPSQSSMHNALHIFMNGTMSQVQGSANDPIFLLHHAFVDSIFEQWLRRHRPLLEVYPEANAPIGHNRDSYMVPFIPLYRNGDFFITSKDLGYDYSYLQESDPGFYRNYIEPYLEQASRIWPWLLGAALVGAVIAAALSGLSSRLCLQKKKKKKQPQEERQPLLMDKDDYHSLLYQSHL
Protocol: B16 cells at a logarithmic phase were collected, trypsin was adopted for digestion, the digestion was terminated with a complete medium (DMEM high sugar medium+10% fetal calf serum), counting was performed; the cell suspension was adjusted to 10×10^4 cells/mL, and inoculated into a 96-well culture plate, each well was added with 100 μl of cell suspension, the marginal wells were filled with sterile PBS, and cultivated in an incubator at 37° C. and with 5% CO2 overnight, the medium (DMEM high sugar medium+10% fetal calf serum) was drawn out, 100 μl of the experiment sample was added into each well, and a control group (namely, the well without the sample but with only medium) was set. After action of 72 hours, 50 μl of 1% TritionX-100 solution was added for cell lysis, quickly put into an ultra-low temperature freezer at −80° C. and cryopreserved for one hour, subsequently the cryopreserved solution was thawed at room temperature, such that tyrosinase within the cells were released outside the cells, pre-warming was performed to 37° C., then 50 μl of 1% levodopa solution was added to produce a mixture, the mixture was reacted at 37° C. for 2 hours, the absorbance value in each well was determined at the wavelength of 490 nm, for every sample concentration, more than 3 subwells were set, and averaged. […]

[1] = system: human immortalized epidermal cells; experiment: Cytotoxicity test (MTT) of human immortalized epidermal cells; details: samples containing cannabis seed oil
Protocol: Human immortalized epidermal cells at a logarithmic phase were collected, the concentration of the cell suspension was adjusted, the cell suspension was added to a 96-well plate at 100 μl per well, incubation was performed at 37° C. and with 5% CO2 to reach a cell density of 5000 cells/well. The solution was changed and the experimental samples at different concentration gradients were added (as the following Table 4), a culture solution containing no experiment sample was used as the control. Incubation was performed with 5% CO2 and at 37° C. for 24 hours, 20 μl of MTT solution (5 mg/ml, i.e. 0.5% MTT) was added into each well, the cultivation was continued for four hours. The drug reacted with MTT sufficiently, firstly centrifugation was performed, then the culture solution was abandoned, and rinsing was performed with PBS carefully for 2-3 times, then a culture solution containing MTT was added. The cultivation was terminated, the culture solution in the well were drawn off carefully. […] The absorbance values of each well were measured in an enzyme linked immunosorbent detector at OD value of 490 nm.
Cell survival rate=(determined well OD value−blank control OD value)/(OD value in the cell comparative group−OD value in the blank control)×100%.

Row | SMILES | melanin content within the B16 cells (B16 cells) | inhibitory effect against tyrosinase (inhibition rate) (tyrosinase) | cell proliferation (eliminating the influence of the cannabis seed oil) [1]
1 | OC[C@H]1O[C@@H](Oc2ccc(O)cc2)[C@H](O)[C@@H](O)[C@@H]1O [arbutin, Arbutin] | 79.24% | – | –
2 | C=C(C)[C@@H]1CCC(C)=C[C@H]1c1c(O)cc(CCCCC)cc1O [CBD, Cannabidiol] | – | effective inhibitory effect against tyrosinase | promote cell proliferation to a certain extent
